Reference: US8946247B2, “Quinazoline carboxamide azetidines” (Merck Patent GmbH, priority 2010, dated 2015)

How the values were obtained:
[1] = molecular target: T1, Aurora B (Homo sapiens, UniProt Q96GD4); experiment: Aurora B Kinase Assay; assay type: biochemical; settings: GST-Aurora B (1-344), 10 uM ATP, 90 min at 25 C
T1 construct: GST-Aurora B (1-344 amino acids); GST (N); purchased Carna Biosciences 05-102
Protocol: To measure inhibitor activity of Aurora B inhibitors in the Caliper Life Sciences LC3000, a TTP Mosquito liquid handling instrument was used to place 0.25 ul of the appropriate concentration of inhibitor in 100% DMSO (for a dose response curve calculation) into each well of a 384-well plate. To this reaction components was added to a final volume of 25 ul: • 0.1 ng/ul GST-Aurora B (1-344 amino acids), (Carna Biosciences 05-102. N-terminal GST fusion with His tagged INCEP, accession number Q96GD4). • 10 uM ATP (Fluka, 02055) • 1 mM DTT (Sigma, D0632) • 1 mM MgCl2 (Sigma, M1028) • 1 uM substrate peptide (sequence FITC-LRRASLG-(CONH2), synthesized by Tufts Peptide Synthesis service. • 100 mM HEPES pH 7.5 (Calbiochem, 391338) • 0.015% Brij-35 (Sigma, B4184)
(§1) The reaction was incubated for 90 min at 25 C, and then stopped by the addition of 70 ul of Stop buffer (100 mM HEPES pH 7.5, 0.015% Brij-35, 10 mM EDTA (Sigma, E7889)).
The plate was read on a Caliper LC 3000 in an Off-Chip mobility shift assay format, using the following parameters for a 12-sipper chip: screening pressure −1.8 psi, upstream voltage −2700, downstream voltage −1000. These conditions caused unphosphorylated substrate and phosphorylated product peptide to resolve as separate peaks allowing direct measurement of percentage of conversion of substrate to product. The percent conversion was plotted against concentration of inhibitor to produce a sigmoidal dose response curve, from which an IC50 was calculated using XLFit for Microsoft Excel.

[2] = tested on: pS6 MDA-MB-468; experiment: Cellular Activity Assay (phospho-S6 in MDA-MB-468 cells); assay type: cell-based; settings: Homo sapiens, 2 hr compound incubation, percent pS6-positive cells
Protocol: MDA-MB-468 cells were grown in DMEM containing glutamine supplemented with 10% Fetal Bovine Serum (FBS) and 1× antibiotics. Cells were maintained by splitting 1:3 twice a week.
For the assay, cells were plated the evening before at a density of 4000 cells per well in black polyD lysine coated 384 well plates. Cells were incubated overnight (16 to 20 hours) in growth media. Compounds at an appropriate concentration were added to the wells and incubated for 2 hr. Controls included: i) no primary, ii) rabbit isotype, iii) propidium iodide (red) only and iv) anti-phospho-S6 antibody alone (green only). Cells were then fixed in 4% paraformaldehyde for 15-20 minutes at room temperature, then washed 3×80 ul with PBS.
50 ul 10% normal goat serum (NGS) with 0.2% triton X 100 in PBS were added and incubated for 30 to 60 minutes at room temperature. Anti-phospho-S6 antibody was diluted 1:800 2% with NGS in 0.2% TritonX-100 and 30 ul added to appropriate wells. The wells were incubated overnight at 4 degrees Celsius.
Then the wells were washed with 3×80 uL PBS. The secondary green fluorescence labeled antibody (Alexa Fluor® 488 F(ab′)2 fragment goat Anti-rabbit IgG (H+L)), was diluted 1:1500 in 2% NGS with 0.2% TritonX-100, and 30 ul were added to the appropriate wells which were then incubated in the dark at room temperature for 60 minutes. Then they were washed with 4×80 ul PBS. Propidium iodide (1.5 mM stock) was diluted 1:1000 in PBS, and 50 ul were added to the appropriate wells and incubated for 30 minutes at room temperature in the dark. Propidium iodide was not washed out. Plates were read on the Acumen Explorer.
Red and green cell populations were determined using controls. The number of green cells (pS6) and total number of cells (red) were then counted and the percentage of green cells was calculated. Percent positive cell data was plotted on a log scale against concentration of compounds and IC50 values were calculated from dose response curves.

[3] = molecular target: T2, Akt1 (Homo sapiens, UniProt P31749); experiment: AKT/PKB Kinase Assay; assay type: biochemical; settings: His-AKT (Full Length), 160 uM ATP, 90 min at 25 C
T2 construct: 0.1 ng/ul His-AKT (Full Length), (Invitrogen, Part #P2999, Lot #641228C); His; purchased Invitrogen P2999
T2 sequence (P31749 whole entry): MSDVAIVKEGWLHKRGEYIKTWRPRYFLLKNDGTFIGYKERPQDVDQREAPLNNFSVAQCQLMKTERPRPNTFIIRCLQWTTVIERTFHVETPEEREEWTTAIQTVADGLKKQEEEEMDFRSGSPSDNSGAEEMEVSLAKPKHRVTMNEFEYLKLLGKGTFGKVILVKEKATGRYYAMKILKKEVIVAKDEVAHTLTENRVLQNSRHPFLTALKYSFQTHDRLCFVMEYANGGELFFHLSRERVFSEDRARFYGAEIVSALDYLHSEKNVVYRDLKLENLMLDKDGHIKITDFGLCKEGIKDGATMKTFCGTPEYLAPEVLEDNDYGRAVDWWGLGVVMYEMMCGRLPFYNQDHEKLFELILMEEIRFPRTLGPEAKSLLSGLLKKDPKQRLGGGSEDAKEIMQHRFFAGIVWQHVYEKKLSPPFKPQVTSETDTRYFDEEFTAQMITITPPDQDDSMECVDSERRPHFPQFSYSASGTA
Protocol: In order to measure AKT inhibition in the Caliper Life Sciences LC3000, a TTP Mosquito liquid handling instrument was used to place 125 nl of the appropriate concentration of inhibitor in 100% DMSO (for a dose response curve calculation) into each well of a 384-well plate. To this reaction components were added to a final volume of 12.5 ul: • 0.1 ng/ul His-AKT (Full Length), (Invitrogen, Part #P2999, Lot #641228C) • 160 uM ATP (Fluke, 02055) • 1 mM DTT (Sigma, D0632) • 1 mM MgCl2 (Sigma, M1028) • 1 uM substrate peptide (sequence FITC-AHA-GRPRTSSFAEG-NH2), synthesized by Tufts Peptide Synthesis service. • 100 mM HEPES pH 7.5 (Calbiochem, 391338) • 0.015% Brij-35 (Sigma, B4184)
as §1
The plate was read on a Caliper LC 3000 in an Off-Chip mobility shift assay format, using the following parameters for a 12-sipper chip: screening pressure −2.3 psi, upstream voltage −500, and downstream voltage −3000.
These conditions cause unphosphorylated substrate and phosphorylated product peptide to resolve as separate peaks allowing direct measurement of percentage of conversion of substrate to product. The percent conversion was plotted against concentration of inhibitor to produce a sigmoidal dose response curve, from which an IC50 was calculated.

[4] = molecular target: T3, P70S6K (T412E mutant) (Homo sapiens, UniProt P23443, T412E); experiment: p70S6K Enzyme Assay; assay type: biochemical; settings: 24 μM ATP, 90 min at 25° C., Caliper mobility shift
T3 construct: purchased Millipore
T3 sequence (P23443 1-421 T412E limits assumed): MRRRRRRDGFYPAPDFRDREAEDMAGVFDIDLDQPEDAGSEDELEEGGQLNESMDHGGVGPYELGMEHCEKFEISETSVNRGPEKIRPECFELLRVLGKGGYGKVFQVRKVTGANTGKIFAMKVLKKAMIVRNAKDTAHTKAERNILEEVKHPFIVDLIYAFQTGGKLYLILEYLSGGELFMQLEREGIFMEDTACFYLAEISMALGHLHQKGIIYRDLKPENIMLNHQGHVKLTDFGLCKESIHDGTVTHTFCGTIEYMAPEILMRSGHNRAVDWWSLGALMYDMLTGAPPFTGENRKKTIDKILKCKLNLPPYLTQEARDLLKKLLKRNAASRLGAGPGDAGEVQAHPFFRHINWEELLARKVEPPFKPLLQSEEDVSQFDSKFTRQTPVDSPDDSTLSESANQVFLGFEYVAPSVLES
Protocol: p70S6K inhibitor compounds were diluted and plated in 96 well plates. A reaction mixture including the following components were then added to the compound plate to initiate the enzyme reaction; P70S6K (3 nM, T412E mutant, Millipore) was mixed with 24 μM ATP in an assay buffer containing 100 mM Hepes (pH 7.5), 5 mM MgCl2, 1 mM DTT, 0.015% Brij and 1 μM of the substrate peptide FITC-AHA-AKRRRLSSLRA-OH (derived from the S6 ribosomal protein sequence, FITC=fluorescein isothiocyanate, AHA=6-aminohexanoic acid). The reaction was incubated for 90 min at 25° C., before the addition of 10 mM EDTA to stop the reaction. The proportion of substrate and product (phosphorylated) peptide was analysed on a Caliper Life Sciences Lab Chip 3000, using a pressure of −1.4 psi, and upstream and downstream voltages of −3000 and −700 respectively. Product peaks were resolved before substrate peaks on the resulting chromatograms.
To assess the inhibitory potential of the compounds, IC50-values were determined, as shown in Chemical Synthesis section above.

T1 sequence (Q96GD4 whole entry, the tested form may be a part): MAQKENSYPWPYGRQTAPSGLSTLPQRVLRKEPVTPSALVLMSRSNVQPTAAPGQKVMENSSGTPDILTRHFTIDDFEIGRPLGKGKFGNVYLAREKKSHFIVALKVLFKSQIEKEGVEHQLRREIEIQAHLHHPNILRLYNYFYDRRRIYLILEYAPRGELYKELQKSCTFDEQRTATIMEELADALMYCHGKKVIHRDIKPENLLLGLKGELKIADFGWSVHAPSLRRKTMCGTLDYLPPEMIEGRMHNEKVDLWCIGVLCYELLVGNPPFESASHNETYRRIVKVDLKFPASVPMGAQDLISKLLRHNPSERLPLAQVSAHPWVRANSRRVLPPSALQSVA
T1 sequence (Q9NQS7 803-918 partner limits assumed): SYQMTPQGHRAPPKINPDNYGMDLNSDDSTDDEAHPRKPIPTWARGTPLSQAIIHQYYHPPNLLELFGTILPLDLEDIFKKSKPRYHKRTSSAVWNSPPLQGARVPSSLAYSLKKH

IC50 [1]	IC50 [2]	IC50 [3]	IC50 [4]	SMILES
0.13 µM	0.008 µM	0.0037 µM	0.0023 µM	NC(=O)c1cccc2c(N[C@H](CN3CCC3)c3ccc(C(F)(F)F)c(Cl)c3)ncnc12 [Example 17, 4-[(S)-2-Azetidin-1-yl-1-(3-chloro-4-trifluoromethylphenyl)-ethylamino]-quinazoline-8-carboxylic acid amide]
0.047 µM	0.016 µM	0.01 µM	0.0011 µM	NC(=O)c1cccc2c(N[C@H](CN3CCC3)c3cccc(Cl)c3)ncnc12 [Example 2, 4-[(S)-2-Azetidin-1-yl-1-(3-chlorophenyl)-ethylamino]-quinazoline-8-carboxylic acid amide]
0.259 µM	0.486 µM	0.37 µM	0.0031 µM	NC(=O)c1cccc2c(N[C@H](CN3CCC3)c3cc(F)ccc3Cl)ncnc12 [Example 25, 4-[(S)-2-Azetidin-1-yl-1-(2-chloro-5-fluoro-phenyl)-ethylamino]-quinazoline-8-carboxylic acid amide]
0.15 µM	0.029 µM	0.011 µM	0.0013 µM	N#Cc1ccc([C@@H](CN2CCC2)Nc2ncnc3c(C(N)=O)cccc23)cc1 [Example 23, 4-[(S)-2-Azetidin-1-yl-1-(4-cyano-phenyl)-ethylamino]-quinazoline-8-carboxylic acid amide]
0.29 µM	0.033 µM	0.0059 µM	0.0015 µM	NC(=O)c1cc(F)cc2c(N[C@H](CN3CCC3)c3ccc(F)c(C(F)(F)F)c3)ncnc12 [Example 45, 4-[(S)-2-Azetidin-1-yl-1-(4-fluoro-3-trifluoromethyl-phenyl)-ethylamino]-6-fluoro-quinazoline-8-carboxylic acid amide]
0.107 µM	1.03 µM	0.077 µM	0.0087 µM	NC(=O)c1cccc2c(N[C@H](CN3CCC3)c3ccc(F)cc3Cl)ncnc12 [Example 24, 4-[(S)-2-Azetidin-1-yl-1-(2-chloro-4-fluoro-phenyl)-ethylamino]-quinazoline-8-carboxylic acid amide]
0.2 µM	0.027 µM	0.0015 µM	0.0022 µM	COc1cc(C(N)=O)c2ncnc(N[C@H](CN3CCC3)c3ccc(F)c(C(F)(F)F)c3)c2c1 [Example 47, 4-[(S)-2-Azetidin-1-yl-1-(4-fluoro-3-trifluoromethyl-phenyl)-ethylamino]-6-methoxy-quinazoline-8-carboxylic acid amide]
0.37 µM	0.199 µM	0.187 µM	0.0017 µM	NC(=O)c1cccc2c(N[C@H](CN3CCC3)c3ccc(OC(F)(F)F)cc3)ncnc12 [Example 30, 4-[(S)-2-Azetidin-1-yl-1-(4-trifluoromethoxy-phenyl)-ethylamino]-quinazoline-8-carboxylic acid amide]
0.043 µM	0.036 µM	0.021 µM	0.001 µM	NC(=O)c1cccc2c(N[C@H](CN3CCC3)c3ccc(Cl)cc3)ncnc12 [Example 10, 4-[(S)-2-Azetidin-1-yl-1-(4-chlorophenyl)-ethylamino]-quinazoline-8-carboxylic acid amide]
0.12 µM	0.032 µM	0.023 µM	0.0016 µM	Cc1cc([C@@H](CN2CCC2)Nc2ncnc3c(C(N)=O)cccc23)ccc1F [Example 42, 4-[(S)-2-Azetidin-1-yl-1-(4-fluoro-3-methyl-phenyl)-ethylamino]-quinazoline-8-carboxylic acid amide]
0.2 µM	0.144 µM	0.084 µM	0.006 µM	NC(=O)c1cccc2c(N[C@H](CN3CCC3)c3ccc(F)cc3F)ncnc12 [Example 15, 4-[(S)-2-Azetidin-1-yl-1-(2,4-difluorophenyl)-ethylamino]-quinazoline-8-carboxylic acid amide]
0.17 µM	0.183 µM	0.091 µM	0.0054 µM	NC(=O)c1cccc2c(N[C@H](CN3CCC3)c3c(F)cccc3F)ncnc12 [Example 16, 4-[(S)-2-Azetidin-1-yl-1-(2,6-difluorophenyl)-ethylamino]-quinazoline-8-carboxylic acid amide]
0.067 µM	0.204 µM	0.25 µM	0.0044 µM	COc1cccc([C@@H](CN2CCC2)Nc2ncnc3c(C(N)=O)cccc23)c1 [Example 12, 4-[(S)-2-Azetidin-1-yl-1-(3-methoxyphenyl)-ethylamino]-quinazoline-8-carboxylic acid amide]
0.18 µM	0.056 µM	0.0056 µM	0.0014 µM	NC(=O)c1cccc2c(N[C@H](CN3CCC3)c3cccc(C(F)(F)F)c3)ncnc12 [Example 27, 4-[(S)-2-Azetidin-1-yl-1-(3-trifluoromethyl-phenyl)-ethylamino]-quinazoline-8-carboxylic acid amide]
0.2 µM	0.13 µM	0.025 µM	0.0028 µM	NC(=O)c1cccc2c(N[C@H](CN3CCC3)c3cc(F)c(F)c(F)c3)ncnc12 [Example 37, 4-[(S)-2-Azetidin-1-yl-1-(3,4,5-trifluorophenyl)-ethylamino]-quinazoline-8-carboxylic acid amide]
0.26 µM	0.01 µM	0.017 µM	0.0008 µM	NC(=O)c1cccc2c(N[C@H](CN3CCC3)c3ccc(C(F)(F)F)cc3)ncnc12 [Example 9, 4-[(S)-2-Azetidin-1-yl-1-(4-trifluoromethylphenyl)-ethylamino]-quinazoline-8-carboxylic acid amide]
